Experimental data reported in patent US6849661B2, “Treatment of abnormal increases in gastrointestinal motility with (R)-verapamil” (AGI Therapeutics, Ltd., priority 2002, dated 2005).
Where “and” joins values, the source holds several entries; their conditions need not be identical. Identical values can stand only once. Like-named read-outs stand apart in the source and are kept apart here.

Assays:
rat aortic tissue = conditions: for pIC50 (−log M), Aorta / IC50: KCl 80 mM contracted rat aorta; for IC50: read-out: IC50 (M), Aorta
Experimental: Rat aortic tissue was prepared and mounted in a tissue bath by standard methods familiar to those skilled in the art. The physiological medium contained KCl at a concentration of 80 mM, which produces contractions of the aortic tissue.

[1] = system: rat vas epididymal tissue; assay: Contractions in rat vas deferens, epididymal portion (in the presence of nifedipine); type: cell-based; conditions: high concentrations, FIG. 3
Text: (§1) In rat vas deferens there are two components to nerve stimulation, an […] component, dominant in the epididymal portion, and a non-adrenergic (purinergic) component, dominant in the prostatic portion. […] (Brown et al., Br J Pharmacol., 79:379-393, 1983).

rat colon tissue = assay: Relaxation of KCl (80 mM)-induced contractions in rat colon tissue (tissue bath); type: cell-based; conditions: for IC50 / pIC50 (−log M), Colon: KCl 80 mM contracted rat colon
Experimental: Rat colon tissue was prepared and mounted in a tissue bath by standard methods familiar to those skilled in the art. The physiological medium contained KCl at a concentration of 80 mM, which produces contractions of the colon tissue. […] Potency was expressed as the concentration producing 50% of […] (IC50) or as the negative logarithm of the IC50 (pIC50).
Other compounds were tested for their ability to relax the KCl contractions, or block the relaxing action of verapamil.

rat vas prostatic tissue = assay: Contractions to electrical stimulation in rat vas deferens, prostatic portion; type: cell-based; conditions: FIG. 3
Text: as §1

SMILES	pIC50 (−log M), Aorta (rat aortic tissue)	IC50 (rat aortic tissue)	effect on epididymal contraction [1]	IC50 (rat colon tissue) [nM]	pIC50 (−log M), Colon (rat colon tissue)	effect on contractions to electrical stimulation in vas prostatic tissue (rat vas prostatic tissue)	ability to relax the KCl contractions (rat colon tissue; rat colon)	further results
COc1ccc(CCN(C)CCC[C@](C#N)(c2ccc(OC)c(OC)c2)C(C)C)cc1OC [(R)-verapamil]	5.35±0.24 −log M	4.47e-06 M and 4.78e-06 M	reduced this epididymal contraction	851	6.07±0.16 −log M	neither (R)-verapamil nor (S)-verapamil abolished contractions		pIC50 (−log M), Aorta (rat aortic tissue; listed as R Isomer): 5.35 −log M; times less potent than (S)-verapamil in the aorta (rat aortic tissue; rat aorta): 10 times; IC50 (rat aortic tissue; listed as R Isomer): 4.47e-06 M; pIC50 (−log M), Colon (rat colon tissue; listed as R Isomer): 6.07 −log M; times less potent than (S)-verapamil in the intestine (rat colon tissue; rat colon): three
COc1ccc(CCN(C)CCC[C@@](C#N)(c2ccc(OC)c(OC)c2)C(C)C)cc1OC [(S)-verapamil]	6.32±0.03 −log M	4.78e-07 M	reduced this epididymal contraction	295	6.53±0.13 −log M and 6.32±0.03 −log M	neither (R)-verapamil nor (S)-verapamil abolished contractions		times more potent than (R)-verapamil in colon (rat colon tissue; rat colon, concentrations tested 1-100 μM): approximately 3 times
COc1ccc(Cl)cc1C(=O)NCCc1ccc(S(=O)(=O)NC(=O)NC2CCCCC2)cc1 [Glibenclamine]								ability to block the relaxing action of verapamil on KCl contractions (rat colon tissue; rat colon): did not block the verapamil-induced relaxations
COc1cc2nc(N3CCN(C(=O)c4ccco4)CC3)nc(N)c2cc1OC [Prazosin]							did not significantly relax KCl contractions	
Cc1cccc(C)c1N=C1NCCCS1 [Xylazine]							small relaxation of the contractions, but only at the highest concentration tested (10^−4M)	
